Laboratory results from US10676710B2, “Cell culture compositions with antioxidants and methods for polypeptide production” (Genentech, Inc., priority 2013, dated 2020).

Key:
[1] = system: antibody producing CHO cells; test: 2-liter stirred bioreactor fed-batch cell culture in basal Media 1/feed Media 2 supplemented with hypotaurine or analog; format: cell-based, Chinese hamster; conditions: for cell growth as measured by VCC: 12.95 mM hypotaurine or 10 mM carboxymethylcysteine in Media 1, 2 L bioreactor (FIG. 7A); for cell viability: 12.95 mM hypotaurine or 10 mM carboxymethylcysteine in Media 1, 2 L bioreactor (FIG. 7B); for antibody production (antibody titer by HPLC): 12.95 mM hypotaurine or 10 mM carboxymethylcysteine in Media 1, 2 L bioreactor (FIG. 8); for color intensity reduction of isolated antibody composition, specific color assay / color intensity reduction of isolated antibody composition, second color assay: 12.95 mM hypotaurine or 10 mM carboxymethylcysteine in Media 1, protein A pool 150 g/L; for color intensity reduction of isolated antibody composition, specific color assay: vs positive control (FIG. 9A); for color intensity reduction of isolated antibody composition, second color assay: vs positive control (FIG. 9B)
Procedure: Antibody producing CHO cells were inoculated at approximately 1.0×10^6 cells/mL in 2-liter stirred bioreactors (Applikon, Foster City, Calif.) containing 1 L of basal Media 1 supplemented with 12.95 mM hypotaurine or 10 mM carboxymethylcysteine (CAS number 638-23-3). Cells were cultured in fed-batch mode with addition of 100 mL of feed Media 2 per liter of cell culture fluid at days 3, 6 and 9 for initiation of the production phase. A positive control was included by culturing cells in Media 1 and 2 without hypotaurine supplementation. The concentration of glucose was analyzed every day and if the glucose concentration fell below 2 g/L, it was replenished from a […] stock solution of glucose for prevention of glucose depletion. Reactors were equipped with calibrated dissolved oxygen, pH and temperature probes. Dissolved oxygen was controlled on-line through sparging with air and/or oxygen. pH was controlled through addition of CO2 or Na2CO3 and antifoam was added to the cultures as needed. The cell cultures were maintained at pH 7.0 and a temperature of 37° C. from days 0 through 3, and then at 35° C. after day 3. The cell cultures were agitated at 275 rpm and the dissolved oxygen level was at 30% of air saturation. Osmolality was monitored using an osmometer from Advanced Instruments (Norwood, Mass.). Offline pH and metabolite concentrations were also determined daily using a Nova Bioprofile 400 (Nova Biomedical, Waltham, Mass.). VCC and cell viability was measured daily using a ViCell® automated cell counter (Beckman Coulter, Fullerton, Calif.). The cell culture fluid was collected daily by centrifuging 1 mL of cell culture fluid for determination of antibody titer using high performance liquid chromatography. At the end of the cell culture duration on day 14, when the amount of protein in the culture was approximately 2-10 g/L, the cell culture fluid from all samples was harvested by centrifugation. The monoclonal antibody in the harvested cell culture fluid was purified using protein A affinity chromatography. The protein A pool was concentrated to 150 g/L using Amicon Centricon centrifugal filter devices (Millipore Corporation, Billerica, Mass.). Color intensity of the concentrated antibody composition was measured in the concentrated protein A pool using two different assays wherein higher numerical values indicated higher color intensity and lower numerical values indicated lower color intensity. […] This color intensity reduction was confirmed by using a second color assay which detected an approximate 17% and 13% color intensity reduction in antibody compositions isolated from cell cultured in media supplemented with hypotaurine and carboxymethylcysteine, respectively (FIG. 9B).

IgG1 monoclonal antibody = test: Antioxidant incubation screening: color intensity of antibody composition after incubation in Media 1/Media 2 mixture; conditions: 1X test concentration in Media 1 + Media 2 mixture, 2 g/L IgG1 mAb, 5 days 37° C.; normalized to positive control (0% change)
Procedure: For antioxidant screening, a total volume of 40 ml media was prepared by mixing 1 part basal Media 1 and 0.3 part feed Media 2 to mirror a representative ratio of media used in cell culture conditions (Table 5). […] The samples were incubated at 37° C. with shaking at 250 rpm for a five day incubation period.
After incubation, the monoclonal antibody was purified using protein A affinity chromatography. The pool was concentrated to 150 g/L using Amicon Centricon centrifugal filter devices (Millipore Corporation, Billerica, Mass.). Color intensity of the concentrated antibody composition was measured in the concentrated protein A pool using an assay wherein higher numerical values indicate higher color intensity and lower numerical values indicate lower color intensity. The numerical results were normalized to the positive control, where the value for the positive control was set at 0% change in color intensity.

[2] = listed as carboxy methyl cysteine

Structure (SMILES) | cell growth as measured by VCC [1] | cell growth as measured by VCC [1, 2] | cell viability [1] | cell viability [1, 2] | antibody production (antibody titer by HPLC) [1] | antibody production (antibody titer by HPLC) [1, 2] | color intensity reduction of isolated antibody composition, specific color assay [1] [%] | color intensity reduction of isolated antibody composition, second color assay [1] [%] | reduction of color intensity of the antibody-containing compositions (IgG1 monoclonal antibody)
N[C@@H](CSCC(=O)O)C(=O)O [carboxymethylcysteine, (2R)-2-amino-3-[(carboxymethyl)sulfanyl]propanoic acid] | comparable | did not compromise | comparable | did not compromise | comparable levels of antibody titers | did not significantly reduce | 13 | ~13 | 
NCCS(=O)(=O)O [Taurine, 2-aminoethane-1-sulfonic acid] |  |  |  |  |  |  |  |  | approximately 5%
NCCS(=O)O [hypotaurine, 2-aminoethane-1-sulfinate] |  |  |  |  |  |  | 27 | ~17 | 
